Results: ChEMBL document CHEMBL3046182, “Development of a rapid resistance monitoring bioassay for codling moth larvae” (2012)
≈ marks a conversion by molar mass, not a printed value.

Experiments:
Assay type in all cases: functional
Cydia pomonella [1] = experiment: Insecticidal activity against po dosed fourth-instar larvae of Cydia pomonella (codling moth) lab-s measured after 4 days
Cydia pomonella [2] = experiment: Insecticidal activity against po dosed Cydia pomonella (codling moth) lab-s neonate measured after 4 days
Cydia pomonella [3] = experiment: Insecticidal activity against Cydia pomonella (codling moth) lab-s neonate compound applied topically measured after 4 days; details: topical, 96 h
Cydia pomonella [4] = experiment: Insecticidal activity against fourth-instar larvae of Cydia pomonella (codling moth) lab-s compound applied topically measured after 4 days; details: topical, 96 h
Cydia pomonella [5] = experiment: Insecticidal activity against po dosed 15 day-old larvae of Cydia pomonella (codling moth) lab-s reared on apple assessed as mortality measured after 4 days
Cydia pomonella [6] = experiment: Insecticidal activity against po dosed 10 day-old larvae of Cydia pomonella (codling moth) lab-s reared on apple assessed as mortality measured after 4 days
Cydia pomonella [7] = experiment: Insecticidal activity against po dosed fourth-instar larvae of Cydia pomonella (codling moth) Gilbert measured after 4 days
Cydia pomonella [8] = experiment: Resistant ratio of LC50 for fourth-instar larvae of Cydia pomonella (codling moth) lab-s to fourth-instar larvae of Cydia pomonella (codling moth) Glibert
Cydia pomonella [9] = experiment: Insecticidal activity against po dosed fourth-instar larvae of Cydia pomonella (codling moth) Holt measured after 4 days
Cydia pomonella [10] = experiment: Insecticidal activity against po dosed 10 day-old larvae of Cydia pomonella (codling moth) Gilbert reared on apple assessed as mortality measured after 4 days
Cydia pomonella [11] = experiment: Resistant ratio of LC50 for Cydia pomonella (codling moth) Holt neonate to Cydia pomonella (codling moth) Glibert neonate
Cydia pomonella [12] = experiment: Insecticidal activity against po dosed 10 day-old larvae of Chlorantraniliprole-selected Cydia pomonella (codling moth) reared on apple assessed as mortality measured after 4 days
Cydia pomonella [13] = experiment: Insecticidal activity against po dosed 20 day-old larvae of Cydia pomonella (codling moth) reared on apple assessed as mortality measured after 4 days
Cydia pomonella [14] = experiment: Resistant ratio of LC50 for fourth-instar larvae of Cydia pomonella (codling moth) Holt to fourth-instar larvae of Cydia pomonella (codling moth) Glibert
Cydia pomonella [15] = experiment: Insecticidal activity against po dosed 10 day-old larvae of Cydia pomonella (codling moth) Owensby reared on apple assessed as mortality measured after 4 days
Cydia pomonella [16] = experiment: Insecticidal activity against po dosed 10 day-old larvae of Cydia pomonella (codling moth) lab-s measured after 4 days
Cydia pomonella [17] = experiment: Insecticidal activity against po dosed fourth-instar larvae of Cydia pomonella (codling moth) Clear Creek abandoned measured after 4 days
Cydia pomonella [18] = experiment: Insecticidal activity against po dosed Cydia pomonella (codling moth) Holt neonate measured after 4 days
Cydia pomonella [19] = experiment: Insecticidal activity against po dosed 11 day-old larvae of spinetoram-selected Cydia pomonella (codling moth) reared on apple assessed as mortality measured after 4 days
Cydia pomonella [20] = experiment: Insecticidal activity against po dosed Cydia pomonella (codling moth) Gilbert neonate measured after 4 days
Cydia pomonella [21] = experiment: Insecticidal activity against po dosed 15 day-old larvae of Cydia pomonella (codling moth) reared on apple assessed as mortality measured after 4 days
Cydia pomonella [22] = experiment: Insecticidal activity against po dosed Cydia pomonella (codling moth) Clear Creek abandoned neonate measured after 4 days
Cydia pomonella [23] = experiment: Resistant ratio of LC50 for Cydia pomonella (codling moth) lab-s neonate to Cydia pomonella (codling moth) Glibert neonate

Compound: CNC(=O)c1cc(Cl)cc(C)c1NC(=O)c1cc(Br)nn1-c1ncccc1Cl [CHLORANTRANILIPROLE]
- LC50 (Cydia pomonella [1]): 0.19 µg/mL (≈ 0.393 µM)
- LC50 (Cydia pomonella [2]): 0.2 µg/mL (≈ 0.414 µM)

Compound: CCO[C@@H]1[C@@H](OC)[C@H](C)O[C@@H](O[C@@H]2C[C@H]3CC[C@@H]4[C@@H](C=C5C(=O)[C@H](C)[C@@H](O[C@H]6CC[C@H](N(C)C)[C@@H](C)O6)CCC[C@H](CC)OC(=O)C[C@H]54)[C@@H]3C2)[C@@H]1OC.CCO[C@@H]1[C@@H](OC)[C@H](C)O[C@@H](O[C@H]2C[C@H]3[C@@H]4C=C5C(=O)[C@H](C)[C@@H](O[C@H]6CC[C@H](N(C)C)[C@@H](C)O6)CCC[C@H](CC)OC(=O)C[C@H]5[C@@H]4C=C(C)[C@@H]3C2)[C@@H]1OC
- LC50 (Cydia pomonella [1]): 0.16 µg/mL
- LC50 (Cydia pomonella [2]): 0.09 µg/mL

Compound: C/C(=N\C#N)N(C)Cc1ccc(Cl)nc1 [ACETAMIPRID]
- LC50 (Cydia pomonella [3]): 0.26 µg/mL (≈ 1.17 µM)
- LC50 (Cydia pomonella [4]): 1.12 µg/mL (≈ 5.03 µM)

Compound: O=C(NC(=O)c1c(F)cccc1F)Nc1ccc(OC(F)(F)C(F)OC(F)(F)F)c(Cl)c1 (configuration not stated) [NOVALURON]
- LC50 (Cydia pomonella [1]): 1.16 µg/mL (≈ 2.35 µM)
- LC50 (Cydia pomonella [2]): 1.08 µg/mL (≈ 2.19 µM)

Compound: COc1cccc(C(=O)NN(C(=O)c2cc(C)cc(C)c2)C(C)(C)C)c1C [METHOXYFENOZIDE]
- mortality (Cydia pomonella [5]): 98.4%
- mortality (Cydia pomonella [6]): 99.2%
- LC50 (Cydia pomonella [1]): 2.3 µg/mL (≈ 6.24 µM)
- LC99 (Cydia pomonella [1]): 18.27 µg/mL
- LC50 (Cydia pomonella [7]): 15.2 µg/mL (≈ 41.3 µM)
- LC99 (Cydia pomonella [7]): 202 µg/mL
- LC50 (Cydia pomonella [2]): 1.2 µg/mL (≈ 3.26 µM)
- LC99 (Cydia pomonella [2]): 14.15 µg/mL
- RatioLC50 (Cydia pomonella [8]): 6.6
- LC50 (Cydia pomonella [9]): 38.7 µg/mL (≈ 105 µM)
- LC99 (Cydia pomonella [9]): 5061.9 µg/mL
- mortality (Cydia pomonella [10]): 93.6%
- RatioLC50 (Cydia pomonella [11]): 24
- mortality (Cydia pomonella [12]): 100%
- mortality (Cydia pomonella [13]): 50%
- RatioLC50 (Cydia pomonella [14]): 16.7
- mortality (Cydia pomonella [15]): 31.3%
- LC95 (Cydia pomonella [16]): 10 µg/mL (≈ 27.1 µM)
- LC50 (Cydia pomonella [17]): 1.35 µg/mL (≈ 3.66 µM)
- LC99 (Cydia pomonella [17]): 28.38 µg/mL
- LC50 (Cydia pomonella [18]): 28.5 µg/mL (≈ 77.3 µM)
- LC99 (Cydia pomonella [18]): 5320.8 µg/mL
- mortality (Cydia pomonella [19]): 83.3%
- LC50 (Cydia pomonella [20]): 9.5 µg/mL (≈ 25.8 µM)
- LC99 (Cydia pomonella [20]): 389.4 µg/mL
- mortality (Cydia pomonella [21]): 55.1%
- LC50 (Cydia pomonella [22]): 95 µg/mL (≈ 258 µM)
- LC99 (Cydia pomonella [22]): 14.57 µg/mL
- RatioLC50 (Cydia pomonella [23]): 8
